{"source": "paper PMC3724985", "about": "“Isolation, biochemical characterization, and cloning of a bacteriocin from the poultry-associated Staphylococcus aureus strain CH-91” (Applied Microbiology and Biotechnology, 2012)", "system": "StpC", "assay": "Residual proteolytic activity of culture media with E-64 (Hide Powder Azure)", "type": "biochemical", "settings": "E-64 at 0.01, 0.1 and 1.0 mM in S. aureus CH-91 culture (TSB, 37 °C), 0.1 M Tris–HCl pH 7.5, 5 mM cysteine, 5 mM EDTA", "experimental": "S. aureus CH-91 was cultured at 37 °C in TSB supplemented with the cysteine peptidase inhibitor E-64 (1-[N-[(L-3-trans-carboxyoxirane-2-carbonyl)-L-leucyl] amino]-4-guanidinobutane; Sigma) at final concentrations of 1.0, 0.1, and 0.01 mM. Aliquots were removed at 5, 10, and 24 h, and the bacteria-free supernatants were obtained by centrifugation.\nThe residual proteolytic activity of collected culture media was determined at 37 °C using Hide Powder Azure (Calbiochem) in 0.1 M Tris–HCl (pH 7.5) supplemented with 5 mM cysteine and 5 mM EDTA.", "data": [{"smiles": "CC(C)C[C@H](NC(=O)[C@H]1O[C@@H]1C(=O)O)C(=O)NCCCCNC(=N)N", "note": "(relative stereo) [E-64, 1-[N-[(L-3-trans-carboxyoxirane-2-carbonyl)-L-leucyl]amino]-4-guanidinobutane]", "values": [{"measurement": "residual proteolytic activity in culture media containing the inhibitor", "value": "No residual proteolytic activity was detected"}]}]}
